Data on four compounds can be found in article PMC4612780, “Divergent Inhibitor Susceptibility among Airway Lumen-Accessible Tryptic Proteases” (PLoS ONE, 2015).

Test in all cases: chromogenic hydrolysis of QAR, […] nm, initial rates
What all share (type): biochemical

Assay [1] deals with T1, HAT; airway trypsin-like protease (Homo sapiens, UniProt O60235).
T1 construct: gene TMPRSS11D; recombinant soluble catalytic domain (R&D Systems)
The note with it: 1 mM QAR, pH 7.6, 120 mM NaCl, 0.05% Tween 20, 100 ug/ml heparin, 37 C, HAT 0.72 nM.

The target in assay [2] is T2, β-tryptase; human lung (β) tryptase.
T2 construct: gene TPSAB1; native soluble tetramer from human lung (EMD-Millipore)
Conditions: 1 mM QAR, pH 7.6, 120 mM NaCl, 0.05% Tween 20, 100 ug/ml heparin, 37 C, tryptase 0.70 nM.

Assay [3] deals with T3, matriptase (Homo sapiens, UniProt Q9Y5Y6).
T3 construct: gene ST14
T3 sequence (Q9Y5Y6 615-855 limits assumed): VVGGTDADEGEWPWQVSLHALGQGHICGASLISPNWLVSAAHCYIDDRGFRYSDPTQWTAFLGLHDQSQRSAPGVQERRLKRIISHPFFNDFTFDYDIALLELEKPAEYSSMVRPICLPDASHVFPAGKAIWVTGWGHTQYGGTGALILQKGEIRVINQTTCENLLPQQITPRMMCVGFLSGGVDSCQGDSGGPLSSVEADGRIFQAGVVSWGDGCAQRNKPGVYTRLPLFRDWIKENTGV
Conditions: 1 mM QAR, pH 7.6, 120 mM NaCl, 0.05% Tween 20, 100 ug/ml heparin, 37 C, matriptase 2.4 nM.

In assay [4] the target is T3, matriptase. Conditions: 1 mM QAR, pH 7.6, 120 mM NaCl, 0.05% Tween 20, 100 ug/ml heparin, 37 C; matriptase 2.4 nM; unreliable (beyond tested range 0.24-1200 uM).
Assay [5] deals with T1, HAT; airway trypsin-like protease. Conditions: 1 mM QAR, pH 7.6, 120 mM NaCl, 0.05% Tween 20, 100 ug/ml heparin, 37 C; HAT 0.72 nM; unreliable (beyond tested range 1.6-20 uM).
Another assay addresses T4, prostasin (Homo sapiens, UniProt Q16651).
T4 construct: gene PRSS8; recombinant soluble catalytic domain (R&D Systems)
Conditions: 1 mM QAR, pH 7.6, 120 mM NaCl, 0.05% Tween 20, 100 ug/ml heparin, 37 C, prostasin 80 nM.

T1 sequence (O60235 187-418 limits assumed): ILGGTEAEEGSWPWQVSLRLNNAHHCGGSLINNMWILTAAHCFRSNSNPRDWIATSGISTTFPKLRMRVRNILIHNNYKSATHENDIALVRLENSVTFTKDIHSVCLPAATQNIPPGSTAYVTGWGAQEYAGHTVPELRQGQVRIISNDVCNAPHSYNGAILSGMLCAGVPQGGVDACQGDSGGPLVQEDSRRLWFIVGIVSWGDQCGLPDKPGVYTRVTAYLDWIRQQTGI
T4 sequence (Q16651 33-322 limits assumed): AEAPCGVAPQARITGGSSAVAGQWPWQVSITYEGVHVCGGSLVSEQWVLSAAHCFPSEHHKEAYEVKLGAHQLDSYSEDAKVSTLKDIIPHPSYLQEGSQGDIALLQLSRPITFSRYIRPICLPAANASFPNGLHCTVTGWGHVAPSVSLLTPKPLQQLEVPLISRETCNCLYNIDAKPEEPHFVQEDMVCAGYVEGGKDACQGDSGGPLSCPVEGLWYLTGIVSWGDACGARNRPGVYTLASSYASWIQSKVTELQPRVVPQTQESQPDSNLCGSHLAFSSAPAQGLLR

Turning to `N=C(N)c1ccc2[nH]c(Cc3nc4ccc(C(=N)N)cc4[nH]3)nc2c1` [BABIM, bis(5-amidino-2-benzimidazolyl)methane], the HAT in assay [1] (brackets 95% CI) is 71 [48, 105] [inhibitor]/[enzyme] ratio (dimensionless). In addition, the Tryptase in assay [2] is 108 [78, 149] [inhibitor]/[enzyme] ratio (dimensionless). Moreover, on matriptase [3], the Matriptase was 0.98 [0.87, 1.11] [inhibitor]/[enzyme] ratio (dimensionless).
In the case of `N=C(N)c1ccccc1` [benzamidine], the Tryptase in assay [2] was 4.7e4 [3.4e4, 6.5e4] [inhibitor]/[enzyme] ratio (dimensionless). Besides, on matriptase [4], the Matriptase is 1.1e6 [9.4e5, 1.2e6] [inhibitor]/[enzyme] ratio (dimensionless). Moreover, in assay [5], the HAT was 1.4e6 [2.0e5, 9.6e6] [inhibitor]/[enzyme] ratio (dimensionless).
As to `CN(C)C(=O)COC(=O)Cc1ccc(OC(=O)c2ccc(NC(=N)N)cc2)cc1` [camostat], in assay [1] (covalent (acyl intermediate)), the HAT is 20 [16, 24] [inhibitor]/[enzyme] ratio (dimensionless). For the same compound, the Tryptase in assay [2] (covalent (acyl intermediate)) was 5.2 [3.7, 7.2] [inhibitor]/[enzyme] ratio (dimensionless). Further, on prostasin (covalent (acyl intermediate)), the Prostasin is 14 [7.7, 25] [inhibitor]/[enzyme] ratio (dimensionless). Further, the Matriptase at matriptase [3] (covalent (acyl intermediate)) is 96 [80, 115] [inhibitor]/[enzyme] ratio (dimensionless).
Regarding `N=C(N)Nc1ccc(C(=O)Oc2ccc3cc(C(=N)N)ccc3c2)cc1` [nafamostat], the HAT in assay [1] is 191 [154, 239] [inhibitor]/[enzyme] ratio (dimensionless). Further, the Tryptase in assay [2] (covalent, suicide substrate, near-stoichiometric) was 0.44 [0.29, 0.67] [inhibitor]/[enzyme] ratio (dimensionless). Moreover, the Prostasin at prostasin was 11 [5.6, 20] [inhibitor]/[enzyme] ratio (dimensionless).
